Laboratory results from ChEMBL document CHEMBL1944561, “Discovery and SAR exploration of a novel series of imidazo[4,5-b]pyrazin-2-ones as potent and selective mTOR kinase inhibitors” (Bioorg Med Chem Lett, 2011).

What was measured:
[1] = biological target: Tyrosine-protein kinase CSK (Homo sapiens) (UniProt P41240); experiment: Inhibition of CSK assessed as activity remaining at 10 uM
[2] = biological target: Tyrosine-protein kinase Fes/Fps (Homo sapiens) (UniProt P07332); experiment: Inhibition of Fes assessed as activity remaining at 10 uM
Sequence of Tyrosine-protein kinase Fes/Fps (Homo sapiens) (P07332 whole entry): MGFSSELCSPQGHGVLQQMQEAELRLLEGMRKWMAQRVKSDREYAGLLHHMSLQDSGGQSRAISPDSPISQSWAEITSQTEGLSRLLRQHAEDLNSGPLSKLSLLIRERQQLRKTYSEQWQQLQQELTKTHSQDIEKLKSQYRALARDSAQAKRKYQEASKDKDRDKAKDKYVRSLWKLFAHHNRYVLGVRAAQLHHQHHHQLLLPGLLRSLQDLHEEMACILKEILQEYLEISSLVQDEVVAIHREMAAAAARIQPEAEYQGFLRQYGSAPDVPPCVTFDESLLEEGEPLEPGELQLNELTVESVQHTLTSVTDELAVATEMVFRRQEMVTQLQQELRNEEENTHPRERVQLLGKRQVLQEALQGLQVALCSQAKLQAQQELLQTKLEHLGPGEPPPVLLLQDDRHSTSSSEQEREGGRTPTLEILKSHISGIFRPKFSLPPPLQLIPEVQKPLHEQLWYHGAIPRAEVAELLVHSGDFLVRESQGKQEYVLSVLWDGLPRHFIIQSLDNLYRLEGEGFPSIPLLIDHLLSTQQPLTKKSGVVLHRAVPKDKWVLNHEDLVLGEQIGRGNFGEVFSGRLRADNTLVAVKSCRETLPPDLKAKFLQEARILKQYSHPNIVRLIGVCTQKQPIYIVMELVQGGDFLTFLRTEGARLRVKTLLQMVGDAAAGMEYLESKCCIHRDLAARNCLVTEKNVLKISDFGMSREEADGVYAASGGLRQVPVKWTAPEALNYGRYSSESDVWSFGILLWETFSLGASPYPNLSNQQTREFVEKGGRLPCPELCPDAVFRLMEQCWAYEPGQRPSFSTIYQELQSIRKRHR

[3] = biological target: T1, Aurora kinase A (Homo sapiens) (UniProt O14965); experiment: Inhibition of Aurora-A assessed as activity remaining at 10 uM
T1 sequence (whole entry): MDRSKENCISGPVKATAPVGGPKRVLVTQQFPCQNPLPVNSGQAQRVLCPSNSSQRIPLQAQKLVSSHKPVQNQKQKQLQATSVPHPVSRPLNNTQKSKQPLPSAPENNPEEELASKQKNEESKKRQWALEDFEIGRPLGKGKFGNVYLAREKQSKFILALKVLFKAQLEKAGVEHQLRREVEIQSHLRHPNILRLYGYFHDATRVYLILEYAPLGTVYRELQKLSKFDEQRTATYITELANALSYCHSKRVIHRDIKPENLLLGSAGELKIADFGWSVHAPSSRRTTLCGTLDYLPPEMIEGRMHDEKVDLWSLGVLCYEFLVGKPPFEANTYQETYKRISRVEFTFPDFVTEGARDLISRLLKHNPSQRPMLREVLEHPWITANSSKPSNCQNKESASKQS

[4] = biological target: Insulin-like growth factor 1 receptor (Homo sapiens) (UniProt P08069); experiment: Inhibition of IGF1R assessed as activity remaining at 10 uM
Sequence of Insulin-like growth factor 1 receptor (Homo sapiens) (P08069 31-736 limits assumed): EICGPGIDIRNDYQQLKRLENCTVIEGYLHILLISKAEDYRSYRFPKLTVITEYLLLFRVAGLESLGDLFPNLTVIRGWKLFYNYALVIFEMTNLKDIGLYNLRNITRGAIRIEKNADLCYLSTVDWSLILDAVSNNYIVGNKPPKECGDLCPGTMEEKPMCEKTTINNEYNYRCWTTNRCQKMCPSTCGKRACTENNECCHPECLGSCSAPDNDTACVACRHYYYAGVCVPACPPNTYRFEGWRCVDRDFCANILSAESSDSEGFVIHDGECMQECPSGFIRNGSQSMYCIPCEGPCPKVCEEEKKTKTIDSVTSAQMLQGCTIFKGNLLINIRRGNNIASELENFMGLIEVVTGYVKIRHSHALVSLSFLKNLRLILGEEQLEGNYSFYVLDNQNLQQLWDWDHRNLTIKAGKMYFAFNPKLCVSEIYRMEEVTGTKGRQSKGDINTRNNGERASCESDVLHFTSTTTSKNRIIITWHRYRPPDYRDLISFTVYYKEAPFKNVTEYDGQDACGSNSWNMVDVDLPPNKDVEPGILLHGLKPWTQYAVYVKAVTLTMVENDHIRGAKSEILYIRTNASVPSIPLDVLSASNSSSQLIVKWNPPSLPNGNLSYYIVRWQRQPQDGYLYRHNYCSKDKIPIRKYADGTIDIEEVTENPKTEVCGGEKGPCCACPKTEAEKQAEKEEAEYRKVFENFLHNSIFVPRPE
Sequence of Insulin-like growth factor 1 receptor (Homo sapiens) (P08069 741-1367 limits assumed): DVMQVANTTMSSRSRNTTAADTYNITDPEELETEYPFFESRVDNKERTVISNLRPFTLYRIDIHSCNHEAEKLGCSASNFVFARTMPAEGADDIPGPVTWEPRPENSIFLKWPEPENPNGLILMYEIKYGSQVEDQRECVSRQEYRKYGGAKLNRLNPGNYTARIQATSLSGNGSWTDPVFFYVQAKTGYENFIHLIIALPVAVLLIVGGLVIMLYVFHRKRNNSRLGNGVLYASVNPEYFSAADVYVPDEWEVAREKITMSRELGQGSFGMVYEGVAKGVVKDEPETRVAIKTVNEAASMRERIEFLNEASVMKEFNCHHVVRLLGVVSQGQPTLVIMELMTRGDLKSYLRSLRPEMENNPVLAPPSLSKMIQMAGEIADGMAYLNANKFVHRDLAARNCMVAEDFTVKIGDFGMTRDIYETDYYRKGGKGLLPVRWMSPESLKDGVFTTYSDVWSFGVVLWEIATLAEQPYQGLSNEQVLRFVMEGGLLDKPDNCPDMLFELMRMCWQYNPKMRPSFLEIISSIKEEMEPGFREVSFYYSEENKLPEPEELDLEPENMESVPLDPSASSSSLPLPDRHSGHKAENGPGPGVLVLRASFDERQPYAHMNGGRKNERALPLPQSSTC

[5] = biological target: Mitogen-activated protein kinase 14 (Homo sapiens) (UniProt Q16539); experiment: Inhibition of p38alpha assessed as activity remaining at 10 uM
Sequence of Mitogen-activated protein kinase 14 (Homo sapiens) (Q16539 whole entry): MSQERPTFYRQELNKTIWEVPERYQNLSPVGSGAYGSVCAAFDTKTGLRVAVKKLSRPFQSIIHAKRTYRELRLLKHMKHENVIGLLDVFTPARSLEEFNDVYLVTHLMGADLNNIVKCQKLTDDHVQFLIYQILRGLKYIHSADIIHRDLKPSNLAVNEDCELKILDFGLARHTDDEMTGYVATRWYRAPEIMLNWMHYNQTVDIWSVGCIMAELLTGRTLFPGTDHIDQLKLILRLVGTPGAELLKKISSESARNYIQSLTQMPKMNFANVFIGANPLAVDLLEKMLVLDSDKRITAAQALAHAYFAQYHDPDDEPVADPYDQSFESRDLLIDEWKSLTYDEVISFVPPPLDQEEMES

[6] = biological target: Serine/threonine-protein kinase mTOR (Homo sapiens, UniProt P42345); experiment: Inhibition of mTOR
[7] = biological target: Ribosomal protein S6 kinase alpha-1 (Homo sapiens) (UniProt Q15418); experiment: Inhibition of Rsk1 assessed as activity remaining at 10 uM
Sequence of Ribosomal protein S6 kinase alpha-1 (Homo sapiens) (Q15418 whole entry): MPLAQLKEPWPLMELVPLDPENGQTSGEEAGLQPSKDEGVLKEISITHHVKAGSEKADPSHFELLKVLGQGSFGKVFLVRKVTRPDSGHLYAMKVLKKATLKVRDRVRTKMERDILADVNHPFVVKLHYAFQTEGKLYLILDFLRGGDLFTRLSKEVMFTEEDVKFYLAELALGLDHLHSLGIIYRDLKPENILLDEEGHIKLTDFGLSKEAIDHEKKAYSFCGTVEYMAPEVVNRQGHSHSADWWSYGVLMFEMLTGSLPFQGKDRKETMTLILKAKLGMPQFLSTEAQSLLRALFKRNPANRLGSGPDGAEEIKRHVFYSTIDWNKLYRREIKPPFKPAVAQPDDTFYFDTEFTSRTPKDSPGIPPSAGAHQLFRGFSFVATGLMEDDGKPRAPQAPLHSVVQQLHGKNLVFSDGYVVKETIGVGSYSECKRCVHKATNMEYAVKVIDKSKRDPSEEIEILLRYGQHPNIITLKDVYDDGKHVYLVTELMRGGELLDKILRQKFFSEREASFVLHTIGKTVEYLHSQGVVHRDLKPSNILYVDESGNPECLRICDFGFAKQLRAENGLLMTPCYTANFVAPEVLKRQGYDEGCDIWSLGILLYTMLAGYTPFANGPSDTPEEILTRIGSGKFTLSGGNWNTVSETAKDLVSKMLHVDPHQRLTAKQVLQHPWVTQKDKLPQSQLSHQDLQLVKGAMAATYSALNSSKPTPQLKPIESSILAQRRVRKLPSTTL

[8] = biological target: T2, Cytoplasmic tyrosine-protein kinase BMX (Homo sapiens) (UniProt P51813); experiment: Inhibition of Bmx assessed as activity remaining at 10 uM
T2 sequence (whole entry): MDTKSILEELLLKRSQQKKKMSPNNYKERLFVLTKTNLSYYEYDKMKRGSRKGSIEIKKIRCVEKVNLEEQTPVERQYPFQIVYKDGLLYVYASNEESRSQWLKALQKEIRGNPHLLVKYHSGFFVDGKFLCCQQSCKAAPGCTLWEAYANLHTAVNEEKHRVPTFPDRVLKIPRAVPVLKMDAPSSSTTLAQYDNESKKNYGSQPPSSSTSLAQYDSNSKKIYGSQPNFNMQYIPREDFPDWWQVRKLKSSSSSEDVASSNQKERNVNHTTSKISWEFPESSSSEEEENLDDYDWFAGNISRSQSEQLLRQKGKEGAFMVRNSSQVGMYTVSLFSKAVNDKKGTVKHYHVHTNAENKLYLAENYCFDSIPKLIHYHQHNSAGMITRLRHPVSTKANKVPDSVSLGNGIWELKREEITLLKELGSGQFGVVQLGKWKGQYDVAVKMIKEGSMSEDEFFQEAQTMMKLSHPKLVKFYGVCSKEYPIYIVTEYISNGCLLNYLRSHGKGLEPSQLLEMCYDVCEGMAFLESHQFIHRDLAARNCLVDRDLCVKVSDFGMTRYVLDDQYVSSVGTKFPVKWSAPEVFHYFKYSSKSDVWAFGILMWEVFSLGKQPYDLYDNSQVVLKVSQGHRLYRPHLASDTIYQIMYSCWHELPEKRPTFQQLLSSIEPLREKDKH

[9] = biological target: Vascular endothelial growth factor receptor 2 (Homo sapiens) (UniProt P35968); experiment: Inhibition of KDR assessed as activity remaining at 10 uM
[10] = biological target: Misshapen-like kinase 1 (Homo sapiens) (UniProt Q8N4C8); experiment: Inhibition of MINK assessed as activity remaining at 10 uM
Sequence of Misshapen-like kinase 1 (Homo sapiens) (Q8N4C8 whole entry, looked up): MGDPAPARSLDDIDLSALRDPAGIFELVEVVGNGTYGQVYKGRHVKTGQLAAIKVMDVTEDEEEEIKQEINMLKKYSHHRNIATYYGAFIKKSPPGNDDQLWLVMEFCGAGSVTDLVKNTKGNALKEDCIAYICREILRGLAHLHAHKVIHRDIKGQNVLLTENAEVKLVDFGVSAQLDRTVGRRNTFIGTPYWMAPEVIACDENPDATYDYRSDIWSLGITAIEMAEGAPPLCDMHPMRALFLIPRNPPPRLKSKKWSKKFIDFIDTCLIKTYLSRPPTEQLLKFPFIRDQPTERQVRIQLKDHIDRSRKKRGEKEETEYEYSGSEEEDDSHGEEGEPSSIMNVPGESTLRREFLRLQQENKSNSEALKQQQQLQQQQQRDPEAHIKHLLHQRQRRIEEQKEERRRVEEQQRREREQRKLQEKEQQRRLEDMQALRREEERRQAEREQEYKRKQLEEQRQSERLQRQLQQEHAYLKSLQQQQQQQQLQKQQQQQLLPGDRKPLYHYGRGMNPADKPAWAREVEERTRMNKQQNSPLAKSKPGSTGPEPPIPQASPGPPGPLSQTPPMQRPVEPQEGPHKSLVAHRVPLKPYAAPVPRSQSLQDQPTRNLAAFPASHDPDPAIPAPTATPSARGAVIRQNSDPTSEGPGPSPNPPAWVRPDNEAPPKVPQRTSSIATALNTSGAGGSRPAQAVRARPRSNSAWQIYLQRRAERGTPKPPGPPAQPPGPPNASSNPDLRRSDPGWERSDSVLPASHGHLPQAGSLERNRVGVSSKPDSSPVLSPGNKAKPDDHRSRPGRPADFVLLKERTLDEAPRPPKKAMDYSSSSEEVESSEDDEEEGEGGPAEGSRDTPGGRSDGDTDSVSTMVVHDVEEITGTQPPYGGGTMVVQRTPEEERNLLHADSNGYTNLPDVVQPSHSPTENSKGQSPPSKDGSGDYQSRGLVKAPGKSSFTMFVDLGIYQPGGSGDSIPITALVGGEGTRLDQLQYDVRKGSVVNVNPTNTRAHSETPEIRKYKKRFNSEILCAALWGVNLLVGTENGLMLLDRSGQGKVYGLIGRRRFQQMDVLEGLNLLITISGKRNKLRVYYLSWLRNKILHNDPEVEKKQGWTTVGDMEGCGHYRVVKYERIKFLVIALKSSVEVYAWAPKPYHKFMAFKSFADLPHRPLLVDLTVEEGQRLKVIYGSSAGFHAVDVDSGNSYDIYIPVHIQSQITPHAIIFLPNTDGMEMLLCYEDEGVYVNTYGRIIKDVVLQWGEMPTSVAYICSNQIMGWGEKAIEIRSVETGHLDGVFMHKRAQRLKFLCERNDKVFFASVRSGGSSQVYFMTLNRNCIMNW

[11] = biological target: T3, Tyrosine-protein kinase JAK3 (Homo sapiens) (UniProt P52333); experiment: Inhibition of JAK3 assessed as activity remaining at 10 uM
T3 sequence (whole entry): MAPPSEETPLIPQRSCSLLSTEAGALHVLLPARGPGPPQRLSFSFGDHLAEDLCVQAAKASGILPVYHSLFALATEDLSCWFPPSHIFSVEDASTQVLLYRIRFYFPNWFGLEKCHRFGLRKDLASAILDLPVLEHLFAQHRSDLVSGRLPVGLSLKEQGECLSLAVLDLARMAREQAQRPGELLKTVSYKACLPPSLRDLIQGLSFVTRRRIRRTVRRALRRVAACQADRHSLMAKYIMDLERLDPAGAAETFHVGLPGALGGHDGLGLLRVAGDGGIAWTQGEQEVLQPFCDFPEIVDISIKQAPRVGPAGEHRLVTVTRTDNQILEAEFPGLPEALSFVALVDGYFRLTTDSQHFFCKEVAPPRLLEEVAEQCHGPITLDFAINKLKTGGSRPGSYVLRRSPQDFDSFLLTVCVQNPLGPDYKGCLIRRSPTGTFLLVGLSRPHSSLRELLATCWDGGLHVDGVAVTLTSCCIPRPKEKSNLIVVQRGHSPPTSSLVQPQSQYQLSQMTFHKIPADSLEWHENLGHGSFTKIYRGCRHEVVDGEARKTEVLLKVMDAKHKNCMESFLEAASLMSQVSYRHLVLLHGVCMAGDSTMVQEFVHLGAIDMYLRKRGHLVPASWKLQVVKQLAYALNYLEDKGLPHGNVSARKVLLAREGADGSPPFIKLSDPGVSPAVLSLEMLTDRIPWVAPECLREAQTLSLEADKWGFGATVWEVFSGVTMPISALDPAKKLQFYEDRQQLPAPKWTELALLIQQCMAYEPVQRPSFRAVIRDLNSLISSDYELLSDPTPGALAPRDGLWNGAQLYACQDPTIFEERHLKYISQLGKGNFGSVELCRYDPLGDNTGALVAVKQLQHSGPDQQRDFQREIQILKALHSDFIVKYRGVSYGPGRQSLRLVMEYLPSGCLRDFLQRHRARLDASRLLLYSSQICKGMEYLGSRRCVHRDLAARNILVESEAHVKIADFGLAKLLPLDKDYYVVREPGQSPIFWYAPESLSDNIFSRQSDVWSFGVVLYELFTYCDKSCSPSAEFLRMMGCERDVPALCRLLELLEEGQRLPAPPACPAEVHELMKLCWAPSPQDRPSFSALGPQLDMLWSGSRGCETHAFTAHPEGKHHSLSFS

[12] = biological target: Receptor-type tyrosine-protein kinase FLT3 (Homo sapiens) (UniProt P36888); experiment: Inhibition of Flt3 assessed as activity remaining at 10 uM

Sequence of Tyrosine-protein kinase CSK (Homo sapiens) (P41240 2-450 limits assumed): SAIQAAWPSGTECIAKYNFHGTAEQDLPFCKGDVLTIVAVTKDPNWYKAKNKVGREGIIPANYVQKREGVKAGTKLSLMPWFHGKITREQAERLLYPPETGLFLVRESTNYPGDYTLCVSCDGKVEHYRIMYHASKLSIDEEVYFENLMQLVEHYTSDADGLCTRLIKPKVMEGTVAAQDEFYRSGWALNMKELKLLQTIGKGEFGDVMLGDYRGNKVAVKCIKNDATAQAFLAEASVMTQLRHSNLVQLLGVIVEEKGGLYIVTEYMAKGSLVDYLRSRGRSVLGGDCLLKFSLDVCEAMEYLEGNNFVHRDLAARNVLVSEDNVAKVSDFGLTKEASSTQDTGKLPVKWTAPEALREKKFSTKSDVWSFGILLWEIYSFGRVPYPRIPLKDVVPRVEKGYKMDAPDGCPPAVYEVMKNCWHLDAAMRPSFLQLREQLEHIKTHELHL

Activity [1]	Activity [2]	Activity [3]	Activity [4]	Activity [5]	IC50 [6]	Activity [7]	Activity [8]	Activity [9]	Activity [10]	Activity [11]	Activity [12]	SMILES
96%	89%	79%	95%	92%	0.002 µM	93%	93%	88%	92%	96%	55%	O=c1[nH]c2ncc(-c3ccc(-c4nc[nH]n4)cc3)nc2n1CC1CCOCC1
86%	81%	58%	91%	92%	0.03 µM	89%	85%	83%	83%	101%	71%	CC(C)(O)c1ccc(-c2cnc3[nH]c(=O)n(CC4CCCCC4)c3n2)cc1
90%	88%	32%	96%	75%	0.021 µM	74%	92%	62%	42%	95%	46%	O=c1[nH]c2ncc(-c3ccc4[nH]cnc4c3)nc2n1CC1CCCCC1
